Measurements published in ChEMBL document CHEMBL1154349, “Syntheses of aminoalcohol-derived macrocycles leading to a small-molecule binder to and inhibitor of Sonic Hedgehog” (Bioorg Med Chem Lett, 2009).
pEC50, pKd: −log10 of the molar value. Active and inactive are the calls of the source. The rule behind the calls is not given here.

Tests used:
[1] = target: Sonic hedgehog protein (Mus musculus) (UniProt Q62226); test: Inhibition of SHH in mouse Ptch deffective MEF cells after 30 hrs by Gli-responsive beta-galactosidse reporter gene assay; type: cell-based
[2] = Cytotoxicity against mouse Shh Light2 cells by cell titer glo assay; type: cell-based; conditions: shh light ii
Sonic hedgehog protein [3] = target: Sonic hedgehog protein (Homo sapiens, UniProt Q15465); test: Binding affinity to recombinant Shh N-terminal peptide by surface plasma resonance
[4] = target: Sonic hedgehog protein (Mus musculus) (UniProt Q62226); test: Inhibition of SHH in mouse Shh Light2 cells after 30 hrs by GLI-responsive bright glo luciferase reporter gene assay relative to 6 uM cyclopamine; type: functional, cell-based; conditions: Shh Light II
Sonic hedgehog protein [5] = target: Sonic hedgehog protein (Mus musculus, UniProt Q62226); test: (§1) Inhibition of SHH in mouse Shh Light2 cells after 30 hrs by GLI-responsive bright glo luciferase reporter gene assay; type: functional, cell-based, Shh Light II
[6] = target: Sonic hedgehog protein (Mus musculus) (UniProt Q62226); test: as §1; type: functional, cell-based; conditions: Shh Light II
[7] = target: Sonic hedgehog protein (Mus musculus) (UniProt Q62226); test: Inhibition of SHH in mouse Shh Light2 cells after 30 hrs by GLI-responsive bright glo luciferase reporter gene assay relative to cyclopamine; type: functional, cell-based; conditions: Shh Light II
[8] = target: Sonic hedgehog protein (Mus musculus) (UniProt Q62226); test: Inhibition of SHH in mouse Shh Light2 cells after 30 hrs by GLI-responsive bright glo luciferase reporter gene assay at 15.6 uM relative to 6 uM cyclopamine; type: functional, cell-based; conditions: Shh Light II

Sequence of Sonic hedgehog protein (Homo sapiens, UniProt Q15465) (Q15465 24-197 limits assumed): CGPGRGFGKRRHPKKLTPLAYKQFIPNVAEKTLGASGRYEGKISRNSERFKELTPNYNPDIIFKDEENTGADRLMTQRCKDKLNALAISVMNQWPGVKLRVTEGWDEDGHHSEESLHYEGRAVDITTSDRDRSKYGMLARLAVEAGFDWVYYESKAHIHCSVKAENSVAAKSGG
Sequence of Sonic hedgehog protein (Mus musculus, UniProt Q62226) (Q62226 25-198 limits assumed): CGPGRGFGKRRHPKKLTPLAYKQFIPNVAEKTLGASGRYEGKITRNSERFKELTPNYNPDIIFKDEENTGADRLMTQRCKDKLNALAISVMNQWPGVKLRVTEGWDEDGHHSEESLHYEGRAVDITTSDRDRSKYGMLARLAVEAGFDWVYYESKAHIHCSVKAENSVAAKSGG

inhibition [1] | Activity (Sonic hedgehog protein [3]) | Compound | Activity [2] | also measured
inactive | Dose-dependent effect | O=C(C[C@H]1C/C=C/CCCC(=O)O[C@@H](c2ccccc2)CNC1=O)NCc1ccc(Cl)cc1 | Non-toxic | pKd (Sonic hedgehog protein [3]): 5.51
inactive | Dose-dependent effect | O=C(C[C@@H]1C/C=C/CCCC(=O)O[C@@H](c2ccccc2)CNC1=O)NCc1ccc(Cl)cc1 | Non-toxic | –
inactive | Dose-dependent effect | O=C(C[C@@H]1C/C=C/CCCC(=O)O[C@H](c2ccccc2)CNC1=O)NCc1ccc(Cl)cc1 | Non-toxic | ECmax [4]: 93%
inactive | Dose-dependent effect | O=C(C[C@@H]1C/C=C/CCCCC(=O)O[C@@H](c2ccccc2)CNC1=O)NCc1ccc(Cl)cc1 | > 31 µM | –
inactive | – | O=C(C[C@H]1C/C=C/CCCCC(=O)OCCNC1=O)NCc1ccc(Cl)cc1 | Non-toxic | –
inactive | Dose-dependent effect | O=C(C[C@H]1C/C=C/CCC(=O)O[C@@H](c2ccccc2)CNC1=O)NCc1ccc(Cl)cc1 | Non-toxic | –
inactive | Dose-dependent effect | O=C(C[C@@H]1C/C=C/CCC(=O)OCCNC1=O)NCc1ccc(Cl)cc1 | Non-toxic | ECmax [4]: 55%
inactive | – | O=C(C[C@H]1C/C=C/CCCCC(=O)O[C@@H](c2ccccc2)CNC1=O)NCc1ccc(Cl)cc1 | Non-toxic | –
inactive | Dose-dependent effect | O=C(C[C@@H]1C/C=C/CCC(=O)O[C@H](c2ccccc2)CNC1=O)NCc1ccc(Cl)cc1 [ROBOTNIKININ] | Non-toxic | pEC50 (Sonic hedgehog protein [5]): 5.40; ECmax [4]: 91%
inactive | Dose-dependent effect | O=C(C[C@H]1C/C=C/CCC(=O)O[C@H](c2ccccc2)CNC1=O)NCc1ccc(Cl)cc1 | Non-toxic | ECmax [6]: 62.5 µM
inactive | Dose-dependent effect | O=C(C[C@@H]1C/C=C/CCCC(=O)OCCNC1=O)NCc1ccc(Cl)cc1 | Non-toxic | –
inactive | – | O=C(C[C@H]1C/C=C/CCCCC(=O)O[C@H](c2ccccc2)CNC1=O)NCc1ccc(Cl)cc1 | Non-toxic | inhibition (Sonic hedgehog protein [3]): inactive
inactive | Dose-dependent effect | O=C(C[C@@H]1C/C=C/CCCCC(=O)O[C@H](c2ccccc2)CNC1=O)NCc1ccc(Cl)cc1 | Non-toxic | –
inactive | – | O=C(C[C@H]1C/C=C/CCCC(=O)OCCNC1=O)NCc1ccc(Cl)cc1 | Non-toxic | –
inactive | – | O=C(C[C@H]1C/C=C/CCCC(=O)O[C@H](c2ccccc2)CNC1=O)NCc1ccc(Cl)cc1 | Non-toxic | ECmax [7]: 71%
inactive | Dose-dependent effect | O=C(C[C@H]1C/C=C/CCC(=O)OCCNC1=O)NCc1ccc(Cl)cc1 | Non-toxic | ECmax [4]: 50%
inactive | Dose-dependent effect | O=C(C[C@@H]1C/C=C/CCCCC(=O)OCCNC1=O)NCc1ccc(Cl)cc1 | Non-toxic | ECmax [4]: 70%
inactive | Dose-dependent effect | O=C(C[C@@H]1C/C=C/CCC(=O)O[C@@H](c2ccccc2)CNC1=O)NCc1ccc(Cl)cc1 | > 15.6 µM | ECmax [8]: 57%
